Assay results taken from PMC4950319, “Kinetic and structural characterization of amyloid‐β peptide hydrolysis by human angiotensin‐1‐converting enzyme” (The Febs Journal, 2016).
Entries after “also recorded” stand apart in the source; their conditions may differ.

How the values were obtained:
[1] = biological target: T1, sACE (Homo sapiens, UniProt P12821); assay: Aβ(4–10)Y hydrolysis by sACE, fluorogenic assay; format: biochemical
T1 construct: made in house; host or cells: CHO cells; purified from cell lysate
Source text: Fluorogenic substrates designed around the established N‐terminal Asp7‐Ser8 cleavage site of the full‐length Aβ(1–42) were used to develop a higher throughput assay. There are two variations of the short fluorogenic peptides: Aβ(4–10)Q (Abz‐FRHDSG(Q)‐EDDnp) which has an N‐terminal Abz donor and a C‐terminal EDDnp quencher group attached to an additional Gln residue. The second peptide, Aβ(4–10)Y (Abz‐FRHDSG‐(NT)) has a different quencher molecule, NT, which substitutes for the naturally occurring Tyr residue.
(§1) An alternative fluorogenic peptide, Abz‐FRHDSG‐(NT) (BIOPEP™ South Africa) was assayed, with 100 μL enzyme and 100 μL substrate (at a final enzyme concentration within 10% hydrolysis of total substrate; see Table 3) as above, in 96‐well plates. The samples were read at the 5 min time point on a Cary Eclipse spectrofluorimeter (Varian Inc.) at λex = 320 nm and λem = 420 nm. Kinetic constants, inner filter effect and standard curves were calculated as above.
Statistical analysis of the data was determined by Student's t test. Differences with P < 0.05 were considered statistically significant. Fractional error was calculated for the k cat/K m ratio with the following equation: ΔZ=ZΔa/a^2+Δb/b^2 where Z represents the mean k cat/K m and ΔZ represents the fractional error. The Δa represents the SEM of the mean k cat (a). Similarly, Δb represents the SEM of the mean K m (b).

[2] = test system: CC‐sACE; assay: Interdomain cooperativity of two C‐domains; format: biochemical, human; settings: catalytic ability per active site versus individual domains
Description: as §1

[3] = fluorescence λex 320 nm, λem 420 nm, Hepes pH 7.5 buffer as for Aβ(4–10)Q, 5 min time point, enzyme 0.031 pmol, mean ± SEM, n = 3

T1 sequence (P12821 30-1306): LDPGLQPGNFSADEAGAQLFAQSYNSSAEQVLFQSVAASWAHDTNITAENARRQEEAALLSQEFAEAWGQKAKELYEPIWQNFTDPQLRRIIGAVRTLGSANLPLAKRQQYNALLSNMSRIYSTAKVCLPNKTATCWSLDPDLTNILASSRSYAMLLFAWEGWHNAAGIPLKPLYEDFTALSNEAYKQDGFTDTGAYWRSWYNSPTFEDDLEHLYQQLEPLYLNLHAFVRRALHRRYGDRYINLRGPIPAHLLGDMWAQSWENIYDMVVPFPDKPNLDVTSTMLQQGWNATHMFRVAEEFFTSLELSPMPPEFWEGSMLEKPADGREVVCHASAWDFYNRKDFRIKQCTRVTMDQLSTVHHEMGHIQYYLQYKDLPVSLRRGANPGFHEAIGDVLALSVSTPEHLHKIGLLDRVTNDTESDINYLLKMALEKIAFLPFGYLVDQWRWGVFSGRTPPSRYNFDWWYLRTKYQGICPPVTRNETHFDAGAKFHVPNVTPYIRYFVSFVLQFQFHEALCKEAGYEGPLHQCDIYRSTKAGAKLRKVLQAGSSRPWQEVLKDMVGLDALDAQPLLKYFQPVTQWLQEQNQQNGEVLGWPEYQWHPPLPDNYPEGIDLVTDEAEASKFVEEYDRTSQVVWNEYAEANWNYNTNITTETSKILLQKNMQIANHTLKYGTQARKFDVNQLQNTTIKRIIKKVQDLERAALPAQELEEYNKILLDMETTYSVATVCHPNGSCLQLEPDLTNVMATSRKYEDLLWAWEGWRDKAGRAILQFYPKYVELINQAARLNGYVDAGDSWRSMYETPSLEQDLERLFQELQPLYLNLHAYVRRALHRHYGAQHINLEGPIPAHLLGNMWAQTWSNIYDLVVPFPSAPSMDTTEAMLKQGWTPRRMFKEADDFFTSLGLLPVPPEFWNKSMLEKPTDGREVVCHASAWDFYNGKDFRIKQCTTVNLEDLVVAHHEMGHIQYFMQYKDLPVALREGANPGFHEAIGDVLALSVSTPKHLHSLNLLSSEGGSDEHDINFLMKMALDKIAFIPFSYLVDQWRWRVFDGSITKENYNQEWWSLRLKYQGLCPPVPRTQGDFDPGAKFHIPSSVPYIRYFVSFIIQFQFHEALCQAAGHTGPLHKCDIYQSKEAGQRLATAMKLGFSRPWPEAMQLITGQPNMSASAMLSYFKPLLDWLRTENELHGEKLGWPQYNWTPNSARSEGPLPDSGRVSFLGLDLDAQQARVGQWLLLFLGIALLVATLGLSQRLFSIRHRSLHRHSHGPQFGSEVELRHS
CC‐sACE, sequence (P12821 643-1222 limits assumed): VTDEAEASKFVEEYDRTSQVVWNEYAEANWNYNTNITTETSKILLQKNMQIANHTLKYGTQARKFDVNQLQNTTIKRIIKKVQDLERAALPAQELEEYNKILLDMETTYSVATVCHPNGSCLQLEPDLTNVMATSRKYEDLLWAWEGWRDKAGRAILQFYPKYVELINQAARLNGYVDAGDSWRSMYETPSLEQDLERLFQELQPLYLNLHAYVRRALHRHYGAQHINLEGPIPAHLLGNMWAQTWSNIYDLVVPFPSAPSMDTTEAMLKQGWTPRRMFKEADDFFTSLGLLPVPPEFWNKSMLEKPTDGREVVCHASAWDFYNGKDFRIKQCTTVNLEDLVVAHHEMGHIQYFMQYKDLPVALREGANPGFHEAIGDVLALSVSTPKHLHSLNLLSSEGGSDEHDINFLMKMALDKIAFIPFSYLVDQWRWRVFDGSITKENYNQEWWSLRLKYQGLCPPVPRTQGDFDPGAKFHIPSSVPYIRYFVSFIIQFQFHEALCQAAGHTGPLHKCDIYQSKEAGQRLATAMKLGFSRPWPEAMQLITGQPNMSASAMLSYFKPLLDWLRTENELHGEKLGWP

With “Abz‐FRHDSG‐(NT) [Aβ(4–10)Y, fluorogenic Aβ(4–10) peptide with NT quencher substituting for Tyr]” the K m [1, 3] was 12.60 ± 2.48 µM, the V max [1, 3] was 0.90 ± 0.18 and the k cat [1, 3] was 28.70 ± 5.81 s⁻¹. The “k cat/K m” value ([1]; fluorescence λex 320 nm, λem 420 nm, Hepes pH 7.5 buffer as for Aβ(4–10)Q, 5 min time point, enzyme 0.031 pmol, mean ± fractional error of the ratio, n = 3) was 22.67 ± 6.40 M^−1·s^−1 × 10^5, the “catalytic efficiency of sACE, fold greater than Ndom” value ([1]; sACE versus Ndom, P < 0.05) was 2 fold and the “cooperativity between the two C‐domains of CC‐sACE” value [2] was “no cooperativity; also recorded: an additive effect between the two C‐domains”.
